Data set [1] concerns cells carrying c-KIT D816V. The following applies: cited from earlier work.
The next data set deals with BCR-ABL T315I mutant. Conditions: cited from earlier work.
In data set [2] the test system is L78 (Lung cancer cell line). In words: tumor cell proliferation, MTT or CCK8 assay, 72 h incubation. It counts as cell-based. The following applies: Homo sapiens, read-out: IC50 on tumor cell proliferation, L78.
Data set [3] has as its system K562 (human chronic myelogenous leukemia cell line). Described as above. The following applies: K562, 72 h, read-out: IC50 on tumor cell proliferation, K562. It counts as cell-based. In outline: (§1)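 Leukemia cell lines were exposed to compounds at 1×10^−10˜1×10^−5M for 72 h. Proliferation was read by MTT (570 nm) or CCK8 (450/650 nm) after a further 4 h incubation. IC50 values were calculated from inhibition of proliferation.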

Data set [4] has as its system MEG-01 (Human megakaryoblastic leukaemia cell line). Described as above. It counts as cell-based. The following applies: MEG-01, 72 h, read-out: IC50 on tumor cell proliferation, MEG-01. In outline: as §1
The subject of data set [5] is MOLT-4 (Human acute lymphoblastic leukemia cell line). The description is as above. In kind it is cell-based. The following applies: MOLT-4, 72 h, read-out: IC50 on tumor cell proliferation, MOLT-4. Put shortly:
as §1

Another data set concerns U937 Cell line. The description is as above. It counts as cell-based. Conditions: Homo sapiens, read-out: IC50 on tumor cell proliferation, U937. Put shortly:
as §1

The test system of data set [6] is K562R cells (imatinib-resistant cell line). The data set is described as above. In kind it is cell-based. Conditions: Homo sapiens, K-562R, read-out: IC50 on tumor cell proliferation, K562R cells.
The target in data set [7] is BAF3-T315I cells (Ba/F3 cell line stably expressing BCR/ABL T315I) (Homo sapiens, UniProt P00519, T315I, cells depend on it). The description is as above. In kind it is cell-based, mice.
Data set [8] is described as follows: Pharmacokinetics and bioavailability in rats. The following applies: SD rats; for pharmacokinetics parameters, overall judgement: corresponding pharmaceutical acceptable salt forms; for Cmax: read-out: Cmax. It counts as in vivo. Put shortly:
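Rats dosed, heparinized blood sampled at set times, plasma stored at -20 °C, acetonitrile-precipitated and analyzed by HPLC-MS. Compartmental and non-compartmental parameters derived; bioavailability from AUC.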

For data set [9], the system named is K562 cells (human CML cell line expressing native Bcr-Abl). In words: Xenograft model of K562 in nude mice, oral dosing. On the procedure: Tumor volume and body weight were monitored once every 2 days (In each group, the tumor volume and body weight at beginning of the day were recorded). Tumor volume was calculated as […]*a*b*b.L×W2/2 (a and b are the length and width of the tumor, respectively). […] The results were shown in Drawings as FIGS. 1, 2, 3, 4, 5, 6, 7 and 8.

Data set [10] deals with Ba/F3-Bcr/ABL-T315I cells. Briefly: Xenograft model of BAF3-T315I in SCID nude mice, oral dosing. Conditions: Ba/F3-Bcr/ABL-T315I xenograft, 25 mg/kg po, q2d or qd. The procedure:
When the mean tumor volume reached 300-500 mm^3, mice were grouped and administered orally. […] Tumor volume and body weight were monitored once every 2 days (In each group, the tumor volume and body weight at beginning of the day were recorded). Tumor volume was calculated as π/6*a*b*b.L×W2/2 (a and b are the length and width of the tumor, respectively). […] The results were shown in Drawings as FIG. 9, 10, 11, 12, 13, 14, 15, 16.

[11] abbreviates: read-out: IC50 on tumor cell proliferation, BAF3-T315I cells; Ba/F3 expressing BCR/ABL T315I, 72 h, Table 1.
Setting [12] is: both sexes, Sprague-Dawley, rat, plasma, iv, 5 mg/kg, IV 5 mg/kg.
Where [13] appears, read: both sexes, Sprague-Dawley, rat, plasma, po, 25 mg/kg, PO 25 mg/kg.

The values that follow come from US8846671B2, “Heterocyclic alkynyl benzene compounds and medical compositions and uses thereof” (Guangzhou Institute of Biomedicine and Health, Chinese …, priority 2010, dated 2014).

The structures appear in SMILES notation. “Also recorded” adds a separate entry of the source. Counter-ions that a name gives are not always drawn. Like-named read-outs stand apart in the source and are kept apart here.

In the case of `Cc1ccc(NC(=O)c2ccc(CN3CCN(C)CC3)cc2)cc1Nc1nccc(-c2cccnc2)n1` [STI571, Imatinib mesylate], the “effect on cells with c-KIT D816V point mutation” value in data set [1] was “cannot inhibit proliferation; also recorded: no effect”.
Turning to `Cc1cn(-c2cc(NC(=O)c3ccc(C)c(Nc4nccc(-c5cccnc5)n4)c3)cc(C(F)(F)F)c2)cn1` [AMN107, Nilotinib], the “effect on cells with c-KIT D816V point mutation” value in data set [1] is “no effect”. The “effect on BCR-ABL T315I mutant” value with BCR-ABL T315I mutant is listed as “neither AMN107 nor BMS-354825 have effect”.
Regarding `Cc1cn(-c2cc(NC(=O)c3ccc(C)c(C#Cc4cnc(NC5CC5)nc4)c3)cc(C(F)(F)F)c2)cn1` [D747, 3-(2-(2-(cyclopropylamino)pyrimidin-5-yl)ethynyl)-4-methyl-N-(3-(4-methyl-1H-imidazol-1-yl)-5-(trifluoromethyl)phenyl)benzamide], the IC50 is 10600 nM in data set [2]; 2.6 nM in data set [3]; 7540 nM in data set [4]; more than 10000 nM in data set [5]; 11500 nM with U937 Cell line (U-937, 72 h); 96 nM in data set [6]. In addition, the GI50 in data set [7] (setting [11]) came to 99.7 nM. Besides, in data set [8], the “pharmacokinetics parameters, overall judgement” value (from here on “pharmacokinetics parameters”) was “adequate pharmacokinetics parameters”.
Take `Cc1cn(-c2cc(NC(=O)c3ccc(C)c(C#Cc4cnc(NC(C)C)nc4)c3)cc(C(F)(F)F)c2)cn1` [D752, 3-(2-(2-(isopropylamino)pyrimidin-5-yl)ethynyl)-4-methyl-N-(3-(4-methyl-1H-imidazol-1-yl)-5-(trifluoromethyl)phenyl)benzamide]: the IC50 is more than 10000 nM in [2]; 3.48 nM in data set [3]; 22600 nM in data set [4]; 12700 nM in [5]; 8990 nM in the data set with U937 Cell line (U-937, 72 h); 840 nM in data set [6]. Besides, in [7] (setting [11]), the GI50 amounted to 1030 nM. For the same molecule, the “pharmacokinetics parameters” value in data set [8] is “adequate pharmacokinetics parameters”.
Turning to `CCNc1ncc(C#Cc2cc(C(=O)Nc3cc(-n4cnc(C)c4)cc(C(F)(F)F)c3)ccc2C)cn1` [D755, 3-(2-(2-(ethylamino)pyrimidin-5-yl)ethynyl)-4-methyl-N-(3-(4-methyl-1H-imidazol-1-yl)-5-(trifluoromethyl)phenyl)benzamide], the IC50 was 11800 nM in data set [2]; 7.59 nM in [3]; more than 10000 nM in [4]; more than 10000 nM in data set [5]; more than 10000 nM in the data set on U937 Cell line (U-937, 72 h); 220 nM in data set [6]. The GI50 in [7] (setting [11]) stood at 61 nM. Also, the “pharmacokinetics parameters” value in [8] is recorded as “adequate pharmacokinetics parameters”.
Turning to `Cc1cn(-c2cc(NC(=O)c3ccc(C)c(C#Cc4cnc5[nH]ncc5c4)c3)cc(C(F)(F)F)c2)cn1` [D767, 3-(2-(1H-pyrazolo[3,4-b]pyridin-5-yl)ethynyl)-4-methyl-N-(3-(4-methyl-1H-imidazol-1-yl)-5-(trifluoromethyl)phenyl)benzamide], the IC50 was 11.8 nM in [2] (MTT or CCK8, nM); 0.208 nM in data set [3] (MTT or CCK8, nM); more than 100 nM in data set [4] (MTT or CCK8, nM); more than 100 nM in [5] (MTT or CCK8, nM); more than 100 nM in the data set with U937 Cell line (U-937, 72 h, MTT or CCK8, nM); 89 nM in data set [6] (imatinib-resistant K562R). In addition, the GI50 in data set [7] (Ba/F3 expressing BCR/ABL T315I, 72 h, Table 1; read-out: IC50 on tumor cell proliferation, BAF3-T315I cells) was determined as 4.24 nM. Also, the “pharmacokinetics parameters” value in data set [8] is recorded as “adequate pharmacokinetics parameters”.
Broadly, the Tmax is the time at which the peak concentration occurs. The term AUC(0-inf) denotes the area under the concentration-time curve extrapolated to infinity. One may read the half-life as how long it takes for the measured level to halve. Read a low half-life as fast loss. In general, Cmax refers to the peak of the concentration-time curve. As usually defined, the bioavailability is the share of a dose that reaches the circulation, judged against a reference dose that is usually intravenous. `Cc1ccc(C(=O)Nc2ccc(CN3CCN(C)CC3)c(C(F)(F)F)c2)cc1C#Cc1cnc2[nH]ncc2c1` [D824 dimesylate salt, 3-(2-(1H-pyrazolo[3,4-b]pyridin-5-yl)ethynyl)-4-methyl-N-(4-((4-methylpiperazin-1-yl)methyl)-3-(trifluoromethyl)phenyl)benzamide dimesylate]: the “effect on tumor growth” value in data set [9] (5 mg/kg po qd) is recorded as “completely inhibit the tumor growth”; in data set [10], “almost completely suppressed the tumor growth”. Besides, the “effect on body weight” value in data set [9] (po, qd) is recorded as “did not cause the body weight loss”; in data set [10], “help the body weight gain”. In addition, the time of peak concentration (Tmax) in [8] (PO 25 mg/kg, dimesylate, 25 mg/kg) amounted to 4.25 h; in data set [8] (both sexes, Sprague-Dawley, rat, plasma, iv, 5 mg/kg, IV 5 mg/kg, read-out: Tmax), 0.033 h. The AUC(0-inf) in data set [8] (setting [12]) was found to be 4300 ng·h/mL; in data set [8] (setting [13]), 12600 ng·h/mL. Besides, the half-life in data set [8] (setting [12]) was 6.1 h; in data set [8] (setting [13]) it was 8.72 h. The highest concentration (Cmax) in data set [8] (setting [12]) was determined as 2240 ng/mL; in data set [8] (setting [13]) it was 775 ng/mL. Besides, the bioavailability in [8] (both sexes, Sprague-Dawley, rat, plasma, po, calculated according to AUC data, PO vs IV, read-out: BA(% Oral bioavailability)) is 58.7%.
